Assays:
[1] = Test 4: Oral Absorption Ability Test (2); assay type: in vivo, mice (ICR, male)
Procedure: The compounds of Examples 62, 63 and 69 were orally administered to mice (ICR, male, n=3) in an amount of 0.5 mg (based on the weight of the compound of Example 62 from which the compounds of Examples 63 and 69 were derived)/0.2 ml/mouse as a 0.5% methylcellulose suspension, and then cilastatin was immediately administered subcutaneously in the same amount (because of the instability of the compound of Example 62 to mouse DHP-I, cilastatin as an inhibitor of DHP-I was used in combination). As a result, the compound of Example 62 was excreted in urine in 6%, 18% and 35% of bio-availability (BA) by 24 hours after the compounds of Examples 62, 63 and 69 were administered. The “BA” is a ratio of the recovery of a mother compound in urine when a test compound, i.e., a pro-drug of the mother compound , is orally administered to the recovery of the mother compound when the mother compound is administered intravenously. Some compounds were tested in the same manner as in Test 3 provided that 5%HCO60 was used instead of 0.5% methylcellulose suspension.

[2] = molecular target: T1, porcine renal DHP-I (Sus scrofa, UniProt P22412); assay: Test 2: stability against DHP-I (porcine); details: partly purified Porcine DHP-I, 100 μg (titer)/ml, 37° C., HPLC
T1 sequence (P22412 17-384): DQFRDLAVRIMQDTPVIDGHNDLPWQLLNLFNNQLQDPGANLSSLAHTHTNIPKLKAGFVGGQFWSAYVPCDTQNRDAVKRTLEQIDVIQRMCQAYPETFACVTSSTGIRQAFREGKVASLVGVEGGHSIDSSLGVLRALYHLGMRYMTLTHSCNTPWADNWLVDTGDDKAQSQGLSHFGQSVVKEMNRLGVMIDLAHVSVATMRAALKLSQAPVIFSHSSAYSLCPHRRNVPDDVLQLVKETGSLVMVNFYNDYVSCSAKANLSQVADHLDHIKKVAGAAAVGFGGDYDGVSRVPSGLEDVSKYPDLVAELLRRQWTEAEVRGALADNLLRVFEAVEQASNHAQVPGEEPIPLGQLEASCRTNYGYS

[3] = molecular target: T2, mouse DHP-I (Mus musculus, UniProt P31428); assay: Test 2: stability against DHP-I (mouse); details: partly purified Mouse DHP-I; 100 μg (titer)/ml; 37° C., 3 hours; HPLC
T2 sequence (P31428 17-384): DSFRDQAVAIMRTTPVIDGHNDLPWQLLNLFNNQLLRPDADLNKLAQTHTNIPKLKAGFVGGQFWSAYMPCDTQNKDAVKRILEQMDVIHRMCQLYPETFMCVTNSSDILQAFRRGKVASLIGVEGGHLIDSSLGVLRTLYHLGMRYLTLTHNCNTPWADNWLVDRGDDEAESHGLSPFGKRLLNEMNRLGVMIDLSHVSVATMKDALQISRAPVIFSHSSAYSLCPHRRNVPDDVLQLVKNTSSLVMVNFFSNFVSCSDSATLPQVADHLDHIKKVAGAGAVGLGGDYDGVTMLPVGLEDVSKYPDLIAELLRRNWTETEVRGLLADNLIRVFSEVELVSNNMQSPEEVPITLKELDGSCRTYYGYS

[4] = system: E. faecalis W-73; assay: Test 1: Anti-Microbial Activities (MIC); assay type: cell-based; details: Enterococcus faecalis, W73, Sensitivity Disk agar-N+5% Horse blood, inoculants 10^6 CFU/ml, read-out: minimum inhibiting concentrations (MIC)
Procedure: (§1) The minimum inhibiting concentrations (MIC, μg/ml) of the compounds according to the present invention to various pathogenic bacteria was measured in accordance with the method described in CHEMOTHERAPY, vol. 16, No. 1,99, 1968. The culture medium for measurement was Sensitivity Disk agar-N+5% Horse blood, and the amount of inoculants was 10^6 CFU/ml.

[5] = system: S. pneumoniae PRC9; assay: Test 1: Anti-Microbial Activities (MIC); assay type: cell-based; details: Streptococcus pneumoniae; S. pneumoniae PRC9, penicillin-hyperresistant strain (PRSP); Sensitivity Disk agar-N+5% Horse blood; inoculants 10^6 CFU/ml; read-out: minimum inhibiting concentrations (MIC)
Procedure: as §1

[6] = system: M. catarrhalis W-0500; assay: Test 1: Anti-Microbial Activities (MIC); assay type: cell-based; details: Moraxella catarrhalis, W0500, Sensitivity Disk agar-N+5% Horse blood, inoculants 10^6 CFU/ml, read-out: minimum inhibiting concentrations (MIC)
Procedure: as §1

[7] = system: H. influenzae PRC2; assay: Test 1: Anti-Microbial Activities (MIC); assay type: cell-based; details: Haemophilus influenzae, Sensitivity Disk agar-N+5% Horse blood, inoculants 10^6 CFU/ml, read-out: minimum inhibiting concentrations (MIC)
Procedure: as §1

[8] = system: S. epidermidis ATCC14990; assay: Test 1: Anti-Microbial Activities (MIC); assay type: cell-based; details: Staphylococcus epidermidis, Sensitivity Disk agar-N+5% Horse blood, inoculants 10^6 CFU/ml, read-out: minimum inhibiting concentrations (MIC)
Procedure: as §1

[9] = system: H. influenzae PRC44; assay: Test 1: Anti-Microbial Activities (MIC); assay type: cell-based; details: Haemophilus influenzae, Sensitivity Disk agar-N+5% Horse blood, inoculants 10^6 CFU/ml, read-out: minimum inhibiting concentrations (MIC)
Procedure: as §1

[10] = system: P. vulgaris GN7919; assay: Test 1: Anti-Microbial Activities (MIC); assay type: cell-based; details: Proteus vulgaris, Sensitivity Disk agar-N+5% Horse blood, inoculants 10^6 CFU/ml, read-out: minimum inhibiting concentrations (MIC)
Procedure: as §1

[11] = system: C. freundii GN346; assay: Test 1: Anti-Microbial Activities (MIC); assay type: cell-based; details: Citrobacter freundii, Sensitivity Disk agar-N+5% Horse blood, inoculants 10^6 CFU/ml, read-out: minimum inhibiting concentrations (MIC)
Procedure: as §1

[12] = system: S. aureus 209P JC-1; assay: Test 1: Anti-Microbial Activities (MIC); assay type: cell-based; details: Staphylococcus aureus, Sensitivity Disk agar-N+5% Horse blood, inoculants 10^6 CFU/ml, read-out: minimum inhibiting concentrations (MIC)
Procedure: as §1

[13] = system: E. coli NIHJ JC-2; assay: Test 1: Anti-Microbial Activities (MIC); assay type: cell-based; details: Escherichia coli, NIHJJC2, Sensitivity Disk agar-N+5% Horse blood, inoculants 10^6 CFU/ml, read-out: minimum inhibiting concentrations (MIC)
Procedure: as §1

[14] = system: E. hirae ATCC8043; assay: Test 1: Anti-Microbial Activities (MIC); assay type: cell-based; details: Enterococcus hirae, Sensitivity Disk agar-N+5% Horse blood, inoculants 10^6 CFU/ml, read-out: minimum inhibiting concentrations (MIC)
Procedure: as §1

[15] = system: K. pneumoniae PCI602; assay: Test 1: Anti-Microbial Activities (MIC); assay type: cell-based; details: Klebsiella pneumoniae, Sensitivity Disk agar-N+5% Horse blood, inoculants 10^6 CFU/ml, read-out: minimum inhibiting concentrations (MIC)
Procedure: as §1

[16] = system: S. aureus M126; assay: Test 1: Anti-Microbial Activities (MIC); assay type: cell-based; details: Staphylococcus aureus; S. aureus M126, methicillin-hyperresistant strain (MRSA); Sensitivity Disk agar-N+5% Horse blood; inoculants 10^6 CFU/ml; read-out: minimum inhibiting concentrations (MIC)
Procedure: as §1

[17] = Test 5: Acute Toxicity (i.v.); assay type: in vivo, mice (ICR, male)
Procedure: The compounds of Examples 44, 62, 88, and 111 were tested again in the same manner as the above provided that cilastatin sodium was co-administered.

[18] = solubility (remark in the acute toxicity test); assay type: physicochemical; details: reason for the lower i.v. dose

| Compound | bio-availability (BA): mother compound excreted in urine by 24 hours ([1]; mouse, in vivo, po) | MIC [4] | MIC [5] | MIC [6] | MIC [7] | MIC [8] | MIC [9] | MIC [10] | MIC [11] | MIC [12] | MIC [13] | MIC [14] | MIC [15] | MIC [16] | further results |
| --- | --- | --- | --- | --- | --- | --- | --- | --- | --- | --- | --- | --- | --- | --- | --- |
| 1-Adamantylcarbonyloxymethyl (1S,5R,6S)-6-((1R)-1-hydroxyethyl)-methyl-2-(7-methylthio-imidazo[5,1-b]thiazol-2-yl)-1-carbapen-2-em-3-carboxylate [Example 250] | 39% |  |  |  |  |  |  |  |  |  |  |  |  |  |  |
| C[C@@H](O)[C@H]1C(=O)N2C(C(=O)[O-])=C(c3cn4cnc(S(=O)(=O)N(C)C)c4s3)[C@H](C)[C@H]12.[Na+] [Example 88, Sodium (1S,5R,6S)-2-[7-(N,N-dimethylsulfamoyl)imidazo[5,1-b]thiazol-2-yl]-6-((1R)-1-hydroxyethyl)-1-methyl-1-carbapen-2-em-3-carboxylate] |  | 0.39 µg/mL | 0.05 µg/mL | < 0.025 µg/mL | < 0.025 µg/mL | < 0.025 µg/mL | 0.1 µg/mL | 0.78 µg/mL | 3.13 µg/mL | < 0.025 µg/mL | 0.39 µg/mL | 0.39 µg/mL | 0.39 µg/mL | 1.56 µg/mL | residual amounts (%) after 3 hours [2]: 73%; residual amounts (%) after 3 hours [3]: <0.1%; survival (acute toxicity) ([17]; mice, 2,000 mg/kg i.v.): All of the animal survived; survival (acute toxicity) ([17]; mice, 2,000 mg/kg i.v., cilastatin sodium co-administered): All of the animal survived |
| CSc1ncn2cc(C3=C(C(=O)[O-])N4C(=O)[C@H]([C@@H](C)O)[C@H]4[C@H]3C)sc12.[Na+] [Example 111, Sodium (1S,5R,6S)-6-((1R)-1-Hydroxyethyl)-1-methyl-2-(7-methylthioimidazo[5,1-b]thiazol-2-yl)-1-carbapen-2-em-3-carboxylate] |  | 0.2 µg/mL | 0.05 µg/mL | < 0.025 µg/mL | < 0.025 µg/mL | < 0.025 µg/mL | 0.05 µg/mL | 0.39 µg/mL | 1.56 µg/mL | < 0.025 µg/mL | 0.78 µg/mL | 0.39 µg/mL | 0.78 µg/mL | 1.56 µg/mL | solubility [18]: limited solubility; survival (acute toxicity) ([17]; mice, 1,500 mg/kg i.v.): All of the animal survived; survival (acute toxicity) ([17]; mice, 1,500 mg/kg i.v., cilastatin sodium co-administered): All of the animal survived |
| CC(C)C1CC[C@H](C)CC1OC(=O)OCOC(=O)C1=C(c2cn3cnc(S(C)(=O)=O)c3s2)[C@H](C)[C@@H]2[C@@H]([C@@H](C)O)C(=O)N12 (stereo partly drawn) [Example 218, (1S,2R,5s)-(d)-Menthyloxycarbonyloxymethyl (1S,5R,6S)-6-((1R)-1-hydroxyethyl)-2-(7-methanesulfonylimidazo[5,1-b]thiazol2-yl)-1-methyl-1-carbapen-2-em-3-carboxylate] |  |  |  |  |  |  |  |  |  |  |  |  |  |  | bio-availability (BA): mother compound excreted in urine by 24 hours ([1]; mice, oral, same as Test 3 but 5%HCO60 instead of 0.5% methylcellulose suspension): 26% |
| CSc1ncn2cc(C3=C(C(=O)OCOC(=O)c4ccccc4)N4C(=O)[C@H]([C@@H](C)O)[C@H]4[C@H]3C)sc12 [Example 253, Benzoylxymethyl (1S,5R,6S)-6-((1R)-1-hydroxyethyl)-1-methyl-2-(7-methylthioimidazo-[5,1-b]thiazol-2-yl)-1-carbapen-2-em-3-carboxylate] | 37% |  |  |  |  |  |  |  |  |  |  |  |  |  |  |
| CSc1ncn2cc(C3=C(C(=O)OC(C)OC(=O)OCCC(C)C)N4C(=O)[C@H]([C@@H](C)O)[C@H]4[C@H]3C)sc12 (stereo partly drawn) [Example 273, 1-(3-Methyl-1-butyloxycarbonylbxy)ethyl (1S,5R,6S)-6-((1R)-1-hydroxyethyl)-1-methyl-2-(7-methylthioimidazo[5,1-b]thiazol-2-yl1)-1-carbapen-2-em-3-carboxylate] | 36% |  |  |  |  |  |  |  |  |  |  |  |  |  |  |

Reference: patent US6677331B2, “Carbapenem derivatives” (Meiji Seika Kaisha, Ltd., priority 1998, dated 2004)
